Measurements from patent US20260262643A1, “HERBICIDAL BENZOXAZINES” (FMC CORPORATION, priority 2022, published 2026).

Tests used:
blackgrass [1] = assay: Test A postemergence; format: in vivo, Alopecurus myosuroides
Outline: (§1)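 Plants were grown in loam and sand and treated preemergence or postemergence (one- to two-leaf stage, 2–10 cm) with compound in solvent plus surfactant. Response was scored against untreated controls after 10 greenhouse days, where 0 means no effect and 100 complete control.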

foxtail, giant [2] = assay: Test A postemergence; format: in vivo, Setaria faberi; details: postemergence, 10 days; for Plant response rating, Foxtail, Giant: visual injury, 0 to 100 scale (0 no effect, 100 complete control)
Outline: as §1

pigweed, palmer [3] = assay: Test A postemergence; format: in vivo, Amaranthus palmeri; details: postemergence, 10 days; for Plant response rating, Pigweed, Palmer: 500 g ai/ha, visual injury, 0 to 100 scale (0 no effect, 100 complete control)
Outline: as §1

oat, wild [4] = assay: Test A postemergence; format: in vivo, Avena fatua; details: postemergence, 10 days; for Plant response rating, Oat, Wild: 500 g ai/ha, visual injury, 0 to 100 scale (0 no effect, 100 complete control)
Outline: as §1

sedge, umbrella = assay: Test B flooded paddy test; format: in vivo, Cyperus difformis; details: 250 g ai/ha, Flood, 13 days, 0 to 100 scale (0 no effect, 100 complete control)
Outline: (§2)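 Each species was raised to the 2-leaf stage. At treatment, each pot received floodwater 3 cm deep, with the chemical delivered into the water. Greenhouse holding followed for 13 days, then percent control was estimated visually versus untreated pots.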

kochia [5] = assay: Test A preemergence; format: in vivo, Bassia scoparia
Outline: as §1

wheat [6] = assay: Test A preemergence; format: in vivo, Triticum aestivum
Outline: as §1

horseweed = assay: Test A postemergence; format: in vivo, Erigeron canadensis; details: postemergence, 10 days; for Plant response rating, Horseweed: visual injury, 0 to 100 scale (0 no effect, 100 complete control)
Outline: as §1

kochia [7] = assay: Test A postemergence; format: in vivo, Bassia scoparia; details: postemergence, 10 days; for Plant response rating, Kochia: visual injury, 0 to 100 scale (0 no effect, 100 complete control)
Outline: as §1

galium = assay: Test A postemergence; format: in vivo, Galium aparine; details: postemergence, 10 days; for Plant response rating, Galium: visual injury, 0 to 100 scale (0 no effect, 100 complete control)
Outline: as §1

corn [8] = assay: Test A preemergence; format: in vivo, Zea mays
Outline: as §1

ragweed [9] = assay: Test A postemergence; format: in vivo, Ambrosia artemisiifolia; details: postemergence, 10 days; for Plant response rating, Ragweed: 500 g ai/ha, visual injury, 0 to 100 scale (0 no effect, 100 complete control)
Outline: as §1

blackgrass [10] = assay: Test A preemergence; format: in vivo, Alopecurus myosuroides
Outline: as §1

goosegrass [11] = assay: Test A preemergence; format: in vivo, Eleusine indica
Outline: as §1

oat, wild [12] = assay: Test A preemergence; format: in vivo, Avena fatua
Outline: as §1

rice = assay: Test B flooded paddy test; format: in vivo, Oryza sativa; details: 250 g ai/ha, Flood, 13 days, 0 to 100 scale (0 no effect, 100 complete control)
Outline: as §2

ducksalad = assay: Test B flooded paddy test; format: in vivo, Heteranthera limosa; details: 250 g ai/ha, Flood, 13 days, 0 to 100 scale (0 no effect, 100 complete control)
Outline: as §2

wheat [13] = assay: Test A postemergence; format: in vivo, Triticum aestivum; details: postemergence, 10 days; for Plant response rating, Wheat: 500 g ai/ha, visual injury, 0 to 100 scale (0 no effect, 100 complete control)
Outline: as §1

corn [14] = assay: Test A postemergence; format: in vivo, Zea mays; details: postemergence, 10 days; for Plant response rating, Corn: visual injury, 0 to 100 scale (0 no effect, 100 complete control)
Outline: as §1

ryegrass, Italian [15] = assay: Test A postemergence; format: in vivo, Lolium multiflorum; details: postemergence, 10 days; for Plant response rating, Ryegrass, Italian: 500 g ai/ha, visual injury, 0 to 100 scale (0 no effect, 100 complete control)
Outline: as §1

soybean [16] = assay: Test A preemergence; format: in vivo, Glycine max
Outline: as §1

ragweed [17] = assay: Test A preemergence; format: in vivo, Ambrosia artemisiifolia
Outline: as §1

goosegrass [18] = assay: Test A postemergence; format: in vivo, Eleusine indica; details: postemergence, 10 days; for Plant response rating, Goosegrass: visual injury, 0 to 100 scale (0 no effect, 100 complete control)
Outline: as §1

soybean [19] = assay: Test A postemergence; format: in vivo, Glycine max; details: postemergence, 10 days; for Plant response rating, Soybean: 500 g ai/ha, visual injury, 0 to 100 scale (0 no effect, 100 complete control)
Outline: as §1

barnyardgrass = assay: Test B flooded paddy test; format: in vivo, Echinochloa crus-galli; details: 250 g ai/ha, Flood, 13 days, 0 to 100 scale (0 no effect, 100 complete control)
Outline: as §2

ryegrass, Italian [20] = assay: Test A preemergence; format: in vivo, Lolium multiflorum
Outline: as §1

pigweed, palmer [21] = assay: Test A preemergence; format: in vivo, Amaranthus palmeri
Outline: as §1

foxtail, giant [22] = assay: Test A preemergence; format: in vivo, Setaria faberi
Outline: as §1

[23] = 125 g ai/ha, visual injury after 10 days, 0 to 100 scale, 0 is no effect, 100 is complete control
[24] = 500 g ai/ha, 0 to 100 scale (0 no effect, 100 complete control), 10 days
[25] = 125 g ai/ha, 0 to 100 scale, 0 no effect, 100 complete control

Cc1cccc2c1O[C@@H](C)CN2C(=O)c1cccc(-n2cnc(C(F)(F)F)n2)c1 [Compound 66]
60: Plant response rating, Blackgrass (blackgrass [1]; 125 g ai/ha, postemergence, 10 days, visual injury, 0 to 100 scale (0 no effect, 100 complete control))
30: Plant response rating, Pigweed, Palmer (pigweed, palmer [3]) | Plant response rating, Kochia (kochia [7]; 125 g ai/ha) | Plant response rating, Corn (corn [8]; [23]) | Plant response rating, Oat, Wild (oat, wild [12]; [23]) | Plant response rating, Soybean (soybean [16]; [23])
50: Plant response rating, Corn (corn [8]; [24]) | Plant response rating, Goosegrass (goosegrass [18]; 500 g ai/ha) | Plant response rating, Pigweed, Palmer (pigweed, palmer [21]; [23])
90: Plant response rating, Blackgrass (blackgrass [1]; 500 g ai/ha, Postemergence, 0 to 100 scale) | Plant response rating, Foxtail, Giant (foxtail, giant [2]; 500 g ai/ha) | Plant response rating, Kochia (kochia [5]; [24]) | Plant response rating, Blackgrass (blackgrass [10]; [24]) | Plant response rating, Oat, Wild (oat, wild [12]; [24]) | Plant response rating, Foxtail, Giant (foxtail, giant [22]; [23])
10: Plant response rating, Kochia (kochia [5]; [23]) | Plant response rating, Goosegrass (goosegrass [18]; 125 g ai/ha)
70: Plant response rating, Oat, Wild (oat, wild [4]) | Plant response rating, Blackgrass (blackgrass [10]; [23]) | Plant response rating, Corn (corn [14]; 500 g ai/ha) | Plant response rating, Ryegrass, Italian (ryegrass, Italian [15])
0: Plant response rating, Sedge, Umbrella (sedge, umbrella) | Plant response rating, Horseweed (horseweed; 125 g ai/ha) | Plant response rating, Horseweed (horseweed; 500 g ai/ha) | Plant response rating, Rice (rice) | Plant response rating, Ducksalad (ducksalad) | Plant response rating, Corn (corn [14]; 125 g ai/ha) | Plant response rating, Ragweed (ragweed [17]; [23]) | Plant response rating, Ragweed (ragweed [17]; [24]) | Plant response rating, Barnyardgrass (barnyardgrass)
80: Plant response rating, Wheat (wheat [6]; [24]) | Plant response rating, Kochia (kochia [7]; 500 g ai/ha) | Plant response rating, Galium (galium; 125 g ai/ha)
40: Plant response rating, Ragweed (ragweed [9]) | Plant response rating, Soybean (soybean [16]; [24])
20: Plant response rating, Foxtail, Giant (foxtail, giant [2]; 125 g ai/ha) | Plant response rating, Wheat (wheat [6]; [23]) | Plant response rating, Wheat (wheat [13])
100: Plant response rating, Galium (galium; 500 g ai/ha) | Plant response rating, Goosegrass (goosegrass [11]; [23]) | Plant response rating, Goosegrass (goosegrass [11]; [24]) | Plant response rating, Soybean (soybean [19]) | Plant response rating, Ryegrass, Italian (ryegrass, Italian [20]; [23]) | Plant response rating, Ryegrass, Italian (ryegrass, Italian [20]; [24]) | Plant response rating, Pigweed, Palmer (pigweed, palmer [21]; [24]) | Plant response rating, Foxtail, Giant (foxtail, giant [22]; [24])

CCc1ccc(-n2cnc(C3CC3)n2)cc1C(=O)N1C[C@H](C)Oc2c(Cl)cccc21 [Compound 103]
30: Oat, Wild plant response rating (oat, wild [4]; [25]) | Plant response rating, Wheat (wheat [13]) | Plant response rating, Soybean (soybean [16]; [23])
40: Plant response rating, Ragweed (ragweed [9]) | Plant response rating, Oat, Wild (oat, wild [12]; [23]) | Plant response rating, Oat, Wild (oat, wild [12]; [24])
60: Blackgrass plant response rating (blackgrass [1]; 125 g ai/ha, postemergence, 10 days, 0 to 100 scale, 0 no effect, 100 complete control) | Plant response rating, Ryegrass, Italian (ryegrass, Italian [15]) | Plant response rating, Soybean (soybean [16]; [24])
0: Plant response rating, Wheat (wheat [6]; [23]) | Plant response rating, Wheat (wheat [6]; [24]) | Horseweed plant response rating (horseweed; [25]) | Ragweed plant response rating (ragweed [9]; [25]) | Plant response rating, Ragweed (ragweed [17]; [23]) | Plant response rating, Ragweed (ragweed [17]; [24])
70: Goosegrass plant response rating (goosegrass [18]; [25])
90: Plant response rating, Blackgrass (blackgrass [1]; 500 g ai/ha, postemergence, 10 days, visual injury, 0 to 100 scale (0 no effect, 100 complete control)) | Foxtail, Giant plant response rating (foxtail, giant [2]; [25]) | Plant response rating, Foxtail, Giant (foxtail, giant [2]; 500 g ai/ha) | Pigweed, Palmer plant response rating (pigweed, palmer [3]; [25]) | Plant response rating, Kochia (kochia [5]; [24]) | Plant response rating, Ryegrass, Italian (ryegrass, Italian [20]; [24]) | Plant response rating, Pigweed, Palmer (pigweed, palmer [21]; [23])
100: Plant response rating, Pigweed, Palmer (pigweed, palmer [3]) | Plant response rating, Sedge, Umbrella (sedge, umbrella) | Plant response rating, Kochia (kochia [7]; 500 g ai/ha) | Galium plant response rating (galium; [25]) | Plant response rating, Galium (galium; 500 g ai/ha) | Plant response rating, Goosegrass (goosegrass [11]; [23]) | Plant response rating, Goosegrass (goosegrass [11]; [24]) | Plant response rating, Goosegrass (goosegrass [18]; 500 g ai/ha) | Soybean plant response rating (soybean [19]; [25]) | Plant response rating, Soybean (soybean [19]) | Plant response rating, Pigweed, Palmer (pigweed, palmer [21]; [24]) | Plant response rating, Foxtail, Giant (foxtail, giant [22]; [23]) | Plant response rating, Foxtail, Giant (foxtail, giant [22]; [24])
35: Plant response rating, Ducksalad (ducksalad)
10: Plant response rating, Horseweed (horseweed; 500 g ai/ha) | Plant response rating, Rice (rice) | Wheat plant response rating (wheat [13]; [25]) | Corn plant response rating (corn [14]; [25])
20: Plant response rating, Corn (corn [8]; [23]) | Plant response rating, Corn (corn [8]; [24]) | Plant response rating, Barnyardgrass (barnyardgrass)
80: Plant response rating, Oat, Wild (oat, wild [4]) | Kochia plant response rating (kochia [7]; [25]) | Plant response rating, Blackgrass (blackgrass [10]; [24]) | Plant response rating, Corn (corn [14]; 500 g ai/ha) | Plant response rating, Ryegrass, Italian (ryegrass, Italian [20]; [23])
50: Plant response rating, Kochia (kochia [5]; [23]) | Plant response rating, Blackgrass (blackgrass [10]; [23]) | Ryegrass, Italian plant response rating (ryegrass, Italian [15]; [25])
